# How the values were obtained:
# S. epidermis 12228 = test: microbroth dilution MIC; assay type: cell-based, Staphylococcus epidermidis; conditions: Staphylococcus epidermidis, ATCC12228; Table 15; read-out: MIC Staphylococcus epidermidis ATCC 12228
# E. faecium 49624 = test: microbroth dilution MIC; assay type: cell-based, Enterococcus faecium; conditions: Enterococcus faecium, ATCC49624; Table 15; read-out: MIC Enterococcus faecium ATCC 49624
# [1] = system: Listeria monocytogenes 19115; test: microbroth dilution MIC; assay type: cell-based; conditions: Listeria monocytogenes, ATCC19115; Table 15; read-out: MIC Listeria monocytogenes ATCC 19115
# [2] = system: Staphylococcus aureus ATCC 33591 (MRSA); test: microbroth dilution MIC; assay type: cell-based; conditions: Staphylococcus aureus; Table 15
# [3] = system: Staphylococcus aureus GISA, ATCC 700787; test: microbroth dilution MIC; assay type: cell-based; conditions: ATCC700787, read-out: MIC Staphylococcus aureus GISA, ATCC 700787
# [4] = system: Streptococcus pneumoniae ATCC 49619; test: disk diffusion assay; assay type: cell-based
# [5] = system: Enterococcus faecium ATCC 51559; test: disk diffusion assay; assay type: cell-based; conditions: 10 micrograms per disk; ciprofloxacin 5, vancomycin 30 micrograms per disk; 35° C.
# [6] = system: Cell wall synthesis in Bacillus subtilis; test: macromolecular synthesis whole cell assay, [3H]N-acetyl glucosamine incorporation; assay type: cell-based; conditions: 1×MIC
# [7] = system: Staphyloccus aureus MH II Eli Lilly Co.; test: microbroth dilution MIC; conditions: Staphylococcus aureus, read-out: MIC Staphyloccus aureus MH II Eli Lilly Co.
# [8] = system: Listeria monocytogenes 19114; test: microbroth dilution MIC; assay type: cell-based; conditions: Listeria monocytogenes, ATCC19114; Table 15; read-out: MIC Listeria monocytogenes ATCC 19114
# B. subtilis 1A757 = test: microbe, parasite or virus in culture; assay type: cell-based, Bacillus subtilis
# S. aureus ATCC 6583P = test: MIC with and without double stranded DNA; assay type: cell-based, Staphylococcus aureus; conditions: Staphylococcus aureus, ATCC6583P, read-out: MIC S. aureus ATCC 6583P
# [9] = system: Streptococcus pneumoniae 49619; test: microbroth dilution MIC; assay type: cell-based; conditions: Streptococcus pneumoniae, ATCC49619; Table 15; read-out: MIC Streptococcus pneumoniae ATCC 49619
# [10] = system: Staphylococccus simulans 11631; test: microbroth dilution MIC; assay type: cell-based, Staphylococcus simulans; conditions: Staphylococcus simulans, ATCC11631; Table 15; read-out: MIC Staphylococcus simulans ATCC 11631
# [11] = system: Staphylococcus aureus ATCC 29213; test: disk diffusion assay; assay type: cell-based
# [12] = system: Enterococcus faecalis ATCC 29212; test: disk diffusion assay; assay type: cell-based
# [13] = system: Staphylococccus aureus 27734; test: microbroth dilution MIC; assay type: cell-based, Staphylococcus aureus; conditions: Staphylococcus aureus, ATCC27734; Table 15; read-out: MIC Staphylococcus aureus ATCC 27734
# S. aureus 29213 = test: microbroth dilution MIC; assay type: cell-based, Staphylococcus aureus; conditions: Staphylococcus aureus, ATCC29213; Table 15; read-out: MIC Staphylococcus aureus ATCC 29213
# [14] = system: Streptococcus pneumoniae ATCC 70676; test: microbroth dilution MIC; assay type: cell-based; conditions: ATCC70676, read-out: MIC Streptococcus pneumoniae ATCC 70676
# [15] = system: Streptococcus pneumoniae ATCC 70674; test: microbroth dilution MIC; assay type: cell-based; conditions: ATCC70674, read-out: MIC Streptococcus pneumoniae ATCC 70674
# [16] = system: Shigella dysenteriae ATCC 11835; test: microbroth dilution MIC; assay type: cell-based; conditions: ATCC11835, read-out: MIC Shigella dysenteriae ATCC 11835
# [17] = system: Neisseria gonnorhea ATCC 49226; test: disk diffusion assay; assay type: cell-based; conditions: 10 micrograms per disk; ciprofloxacin 5, vancomycin 30 micrograms per disk; GC agar with 1% growth supplement with 5% CO2
# [18] = system: Enterococcus faecium ATCC 49624; test: disk diffusion assay; assay type: cell-based
# [19] = system: Staphylococcus aureus (MRSA) ATCC 33591; test: disk diffusion assay; conditions: kakadumycin B at 10 μg; control antibiotic; MHA 35° C.
# [20] = system: Pseudomonas aeruginosa ATCC 27853; test: disk diffusion assay; assay type: cell-based; conditions: kakadumycin B at 10 μg; control antibiotic; MHA 35° C.
# [21] = system: Acinetobacter sp. ATCC 49137; test: disk diffusion assay; assay type: cell-based; conditions: kakadumycin B at 10 μg; control antibiotic; MHA 35° C.
# [22] = system: S. maltophilia ATCC 13637; test: disk diffusion assay; assay type: cell-based, Stenotrophomas maltophilia; conditions: kakadumycin B at 10 μg; control antibiotic; MHA 35° C.
# [23] = system: Escherichia coli ATCC 25922; test: disk diffusion assay; assay type: cell-based; conditions: kakadumycin B at 10 μg; control antibiotic; MHA 35° C.
# S. epidermis ATCC 12228 = test: disk diffusion assay; assay type: cell-based, Staphylococcus epidermidis; conditions: kakadumycin B at 10 μg; control antibiotic; MHA 35° C.
# [24] = system: Micrococcus luteus ATCC 9341; test: disk diffusion assay; conditions: kakadumycin B at 10 μg; control antibiotic; MHA 35° C.
# [25] = system: Klebsiella pneumoniae ATCC 10031; test: disk diffusion assay; conditions: kakadumycin B at 10 μg; control antibiotic; MHA 35° C.
# [26] = system: Salmonella typhimurium ATCC 13311; test: disk diffusion assay; conditions: kakadumycin B at 10 μg; control antibiotic; MHA 35° C.
# [27] = system: Enterococcus faecalis ATCC 51299; test: disk diffusion assay; assay type: cell-based; conditions: kakadumycin B at 10 μg; control antibiotic; MHA 35° C.
# [28] = system: Human Breast Cancer Epithelial BT-20; test: CellTiter 96 Aqueous Non-Radioactive Cell Proliferation Assay; assay type: cell-based; conditions: text of Examples 15, 18, 19
# Procedure: (§1) The munumbicins were then tested against three human cancer cell lines (ATCC) and human primary mammary epithelial cells (HMECs) (Clonetics; Biowhittaker, Walkersville, Md.) using a CellTiter 96® Aqueous Non-Radioactive Cell Proliferation Assay kit from Promega (Madison, Wis.). The cell lines were A-549 (lung epithelial carcinoma, ATCC CCL-185), ME-180 (cervical epithelial epidermoid carcinoma, ATCC HTB-33), and BT-20 (breast epithelial cancer, ATCC HTB-19), and were grown in the media recommended by ATCC. The primary mammary cells were cultured as recommended by the manufacturer in mammary epithelial cell growth media (MEGM®). […] After seeding, the cells were incubated for five hours at 37° C. before addition of the munumbicins. Two-fold serial dilutions of the munumbicins were made in the culture medium, and a volume equal to that of the seeded cells for each dilution was added to three wells of cells. Each plate also contained some wells with cells plus medium only and some wells with medium only. […] The A-549 and ME-180 cells were incubated for 48 hours. […] The plates were incubated at 37° C. for one to four hours, and the OD490 was determined. The OD reading of all wells was corrected for background by subtracting the reading of wells containing medium only. […] Kakadumycin A was tested against three human cancer cell lines (ATCC) and human primary mammary epithelial cells using the procedure described above for the munumbicins. Kadadumycin B was tested against one human cancer cell line.
# [29] = system: Human Primary Mammary Epithelial HMEC; test: as above; assay type: cell-based
# Procedure: as §1
# [30] = system: Burkholderia cepacia ATCC 25416; test: disk diffusion assay; conditions: kakadumycin B at 10 μg; control antibiotic; MHA 35° C.
# [31] = system: Staphylococcus aureus (GISA) ATCC 700699; test: disk diffusion assay; conditions: kakadumycin B at 10 μg; control antibiotic; MHA 35° C.
# [32] = system: Shigella dysenteriae ATCC 11835; test: disk diffusion assay; assay type: cell-based; conditions: kakadumycin B at 10 μg; control antibiotic; MHA 35° C.
# [33] = 10 micrograms per disk, ciprofloxacin 5, vancomycin 30 micrograms per disk, 35° C.
# [34] = kakadumycin B at 10 μg, control antibiotic, MHA 35° C.
molecule,measurement,setting,value
"CN[C@H](CC(C)C)C(=O)N[C@H]1C(=O)N[C@@H](CC(N)=O)C(=O)N[C@H]2C(=O)N[C@H]3C(=O)N[C@H](C(=O)N[C@H](C(=O)O)c4cc(O)cc(O)c4-c4cc3ccc4O)[C@H](O)c3ccc(c(Cl)c3)Oc3cc2cc(c3O[C@@H]2O[C@H](CO)[C@@H](O)[C@H](O)[C@H]2O[C@H]2C[C@](C)(N)[C@H](O)[C@H](C)O2)Oc2ccc(cc2Cl)[C@H]1O [Vancomycin, reference compound]",MIC,S. epidermis 12228,1 µg/mL
same,MIC,E. faecium 49624,0.5 µg/mL
same,MIC,[1],1 µg/mL
same,MIC,[2],2 µg/mL
same,MIC,[3],8 µg/mL
same,"diameter of the zone of inhibition, Streptococcus pneumoniae ATCC 49619","[4]; 10 micrograms per disk, ciprofloxacin 5, vancomycin 30 micrograms per disk, MHA with 5% dsb. and 5% CO2",20 mm
same,"diameter of the zone of inhibition, Enterococcus faecium ATCC 51559",[5],0 mm
same,% [3H]N-acetyl glucosamine (Cell wall synthesis) incorporation of that of the untreated culture,[6]; 5 min,33%
same,% [3H]N-acetyl glucosamine (Cell wall synthesis) incorporation of that of the untreated culture,[6]; 10 min,41%
same,MIC,[7],0.06 µg/mL
same,MIC,[8],1 µg/mL
same,1×MIC against Bacillus subtilis,B. subtilis 1A757,0.25 micrograms/ml
same,increase of MICs when DNA was added,B. subtilis 1A757,not affected
same,MIC,"B. subtilis 1A757; Bacillus subtilis, 1A757, read-out: MIC B. subtilis 1A757",0.125 µg/mL
same,MIC,S. aureus ATCC 6583P,0.5 µg/mL
same,MIC,[9],0.125 µg/mL
same,MIC,[10],1 µg/mL
same,"diameter of the zone of inhibition, Staphylococcus aureus ATCC 29213",[11]; [33],15 mm
same,"diameter of the zone of inhibition, Enterococcus faecalis ATCC 29212",[12]; [33],18 mm
same,MIC,[13],1 µg/mL
same,MIC,S. aureus 29213,1 µg/mL
same,MIC,[14],0.25 µg/mL
same,MIC,[15],0.25 µg/mL
same,MIC,[16],2 µg/mL
same,"diameter of the zone of inhibition, Neisseria gonnorhea ATCC 49226",[17],13 mm
same,"diameter of the zone of inhibition, Enterococcus faecium ATCC 49624",[18]; [33],22 mm
kakadumycin B,"Disk Diffusion, Staphylococcus aureus (MRSA) 33591",[19],22 mm
same,"Disk Diffusion, Pseudomonas aeruginosa 27853",[20],R
same,concentration causing detectable lysis of human red blood cells,human red blood cells,> 80 micrograms/ml
same,"Disk Diffusion, Acinetobacter spp. 49137",[21],11 mm
same,"Disk Diffusion, Stenotrophomas maltophilia 13637",[22],13 mm
same,"Disk Diffusion, Streptococcus pneumoniae 49619","[4]; kakadumycin B at 10 μg, control antibiotic, MHA w/5% dsb 35° C. w/5% CO2",22 mm
same,"Disk Diffusion, Escherichia coli 25922",[23],8 mm
same,"Disk Diffusion, Staphylococcus epidermidis 12228",S. epidermis ATCC 12228,23 mm
same,"Disk Diffusion, Micrococcus luteus 9341",[24],28 mm
same,"Disk Diffusion, Klebsiella pneumoniae 10031",[25],R
same,"Disk Diffusion, Staphylococcus aureus 29213",[11]; [34],17 mm
same,"Disk Diffusion, Salmonella typhimurium 13311",[26],R
same,"Disk Diffusion, Enterococcus faecalis 29212",[12]; [34],20 mm
same,"Disk Diffusion, Enterococcus faccalis (VRE) 51299",[27],21 mm
same,IC50 human breast cancer cell line BT 20,[28],0.008 µg/mL
same,"IC50 cytotoxicity, human mammary epithelial cells",[29],10.5±1.4 nanograms/ml
same,"Disk Diffusion, Burkholderia cepacia 25416",[30],R
same,"Disk Diffusion, Staphylococcus aureus (GISA) 700699",[31],22 mm
same,"Disk Diffusion, Enterococcus faecium 49624",[18]; [34],22 mm
same,"Disk Diffusion, Shigella dysenteriae 11835",[32],10 mm
